A short description of series [1]: Aqueous solubility (pH 7.4) assay, Millipore MultiScreen filter system. Type of series: physicochemical. The settings on record: read-out: Sol (aqueous solubility). How it is done:
Compounds were assessed for their solubility at pH 7.4 using the commercially available Millipore MultiScreen Solubility filter system (Millipore, Billerica, MA). Analysis was performed by liquid chromatography-tandem mass spectrometry (LC-MS/MS).

Series [2] deals with α1a, α1b, α1d, β1, β2, β3, D2, D5, DAT, GABA-A, H2, H3, H4, mAChR1-5, opioid receptors (δ, κ, µ), benzodiazepine receptors (peripheral and brain) …. Nature of the series: Additional selectivity profiling, receptors and transporters (PDSP). The settings on record: PDSP panel, limited binding capacity; read-out: Ki at a variety of receptors and transporters. As to the method:
(§1) In vitro assessments of MC-170073, MC-20078, and MC-230079 activity at the following targets were determined using the assay systems available through the Psychoactive Drug Screening Program (PDSP). Detailed protocols for each assay are available at https://pdsp.unc.edu/pdspweb/?site=assays. Receptors 5-HT1A, 5-HT1B, 5-HT1D, 5-HT1E, 5-HT2A, 5-HT2B, 5-HT2C, 5-HT3, 5-HT5A, 5-HT6, 5-HT7, α1A, α1B, α1D, α2A, α2B, α2C, benzodiazepine, β1, β2, β3, GABA-A, H1, H2, H3, H4, M1, M2, M3, M4, M5, δ-opioid, κ-opioid, and µ-opioid and transporters dopamine, norepinephrine, and serotonin were evaluated.

The target in the next series is T1, α2A (Homo sapiens, UniProt P08913).
T1 construct: NIMH Psychoactive Drug Screening Program (PDSP), assay service
Nature of the series: PDSP selectivity profiling, α2A. Type of series: binding. As to the method: as §1

The target in the next series is T2, α2B (Homo sapiens, UniProt P18089).
T2 construct: NIMH Psychoactive Drug Screening Program (PDSP), assay service
Nature of the series: PDSP selectivity profiling, α2B. Format: binding. As to the method:
as §1

The target of a further series is T3, α2C (Homo sapiens, UniProt P18825).
T3 construct: NIMH Psychoactive Drug Screening Program (PDSP), assay service
Nature of the series: PDSP selectivity profiling, α2C. Format: binding. As to the method: as §1

Another series addresses T4, D3 (Homo sapiens, UniProt P35462).
T4 construct: NIMH Psychoactive Drug Screening Program (PDSP), assay service
Nature of the series: PDSP selectivity profiling, D3. Format: binding.

The target of the next series is T5, D4 (Homo sapiens, UniProt P21917).
T5 construct: NIMH Psychoactive Drug Screening Program (PDSP), assay service
As to the kind of experiment: PDSP selectivity profiling, D4. Format: binding.

The next series has as its target T6, H1 (Homo sapiens, UniProt P35367).
T6 construct: NIMH Psychoactive Drug Screening Program (PDSP), assay service
Nature of the series: PDSP selectivity profiling, H1. Format: binding. As to the method:
as §1

Series [3] is described as follows: Microsomal stability assay, mouse liver microsomes. Format: in vitro ADME. The settings on record: 37°C, NADPH regenerating system, read-out: T1/2 MLM. How it is done: Test compounds were assessed for microsomal stability by incubating at 37°C in the presence of mouse or human liver microsomes and an NADPH regenerating system as described by Yang et al. ([16]). Microsomal protein content was adjusted to ensure accurate rates of substrate consumption. Analysis was performed by LC-MS/MS analysis.
(In general: Liver microsomes are a subcellular fraction often used to study metabolism.)

The subject of series [4] is chronic DSS-induced colitis. Nature of the series: Chronic DSS-induced colitis model (three cycles of DSS). Type of series: in vivo, C57BL/6 mice. The settings on record: 10 mg/kg ip during last cycle. An excerpt: C57BL/6 (Taconic, Cambridge City, IN) for the DSS model of colitis, as well as C57BL/6 and Rag1^−/− mice (Jackson Laboratory, Bar Harbor, ME) for the T-cell transfer model, were kept in sterilized, filter-topped cages under specific pathogen-free conditions upon arrival and fed autoclaved food. Male mice aged 8–10 wk were used for all experiments. Mice were acclimatized for 7 days before the start of any experiments. All experiments were approved by the animal ethics committee of McMaster University and conducted under Canadian guidelines for animal research.
For induction of acute colitis, DSS (molecular mass 40 kDa; ICN; Biomedicals Incorporate, Solon, OH) was added to autoclaved drinking water at a final concentration of 4 or 5% wt/vol for 5 days. For the induction of chronic colitis, DSS was added to normal drinking water at a final concentration of 4% for 5 days, followed by 7 days of water. This cycle was repeated twice thereafter, with 2% DSS. Control mice received vehicle or normal drinking water.
For acute DSS-induced colitis, C576BL/6 mice were treated with MC-170073 (10 mg/kg of body wt) or vehicle (10% DMSO in normal saline) via intraperitoneal injection once daily for 6 days, starting 1 day before the beginning of DSS. In a separate experiment, C57BL/6 mice were orally administered with MC-230078 (10 mg/kg) or vehicle twice daily for 5 days, starting from the beginning of DSS. […]
Disease activity index (DAI) is a combined score of weight loss, stool consistency, and fecal bleeding and was blindly assessed using a previously published scoring system ([19]). […] DAI was measured across all days of DSS treatment. Macroscopic damage scores were blindly scored using a previously published scoring system for DSS-induced colitis ([19]).
Colonic myeloperoxidase (MPO) levels were measured following a published protocol ([19]). […] The absorbance was measured at 450 nm by a spectrophotometer (model EL808, BioTek). MPO level was expressed in units per milligram of tissue, where 1 U is defined as the quantity of enzyme able to convert 1 μmol hydrogen peroxide to water per minute at room temperature.
Segments of the proximal colon were washed with PBS, fixed in 10% neutral-buffered formalin, washed with ethanol, and embedded in paraffin. Hematoxylin-eosin (H&E)-stained colonic tissue sections were scored using a previously published system ([19]): crypt architecture (normal = 0; severe crypt distortion with loss of entire crypts = 3), degree of inflammatory cell infiltration (normal = 0; dense inflammatory infiltrate = 3), muscle thickening (base of crypt sits on the muscularis mucosae = 0; marked muscle thickening present = 3), goblet cell depletion (absent = 0; present = 1), and crypt abscess (absent = 0; present = 1). […]

Where [5] appears, read: pH 7.4, aqueous buffer, kinetic from dmso stock.

In brackets after ≈: the same amount, converted by molar mass. Like-named read-outs stand apart in the source and are kept apart here.

T2 sequence (P18089 whole entry): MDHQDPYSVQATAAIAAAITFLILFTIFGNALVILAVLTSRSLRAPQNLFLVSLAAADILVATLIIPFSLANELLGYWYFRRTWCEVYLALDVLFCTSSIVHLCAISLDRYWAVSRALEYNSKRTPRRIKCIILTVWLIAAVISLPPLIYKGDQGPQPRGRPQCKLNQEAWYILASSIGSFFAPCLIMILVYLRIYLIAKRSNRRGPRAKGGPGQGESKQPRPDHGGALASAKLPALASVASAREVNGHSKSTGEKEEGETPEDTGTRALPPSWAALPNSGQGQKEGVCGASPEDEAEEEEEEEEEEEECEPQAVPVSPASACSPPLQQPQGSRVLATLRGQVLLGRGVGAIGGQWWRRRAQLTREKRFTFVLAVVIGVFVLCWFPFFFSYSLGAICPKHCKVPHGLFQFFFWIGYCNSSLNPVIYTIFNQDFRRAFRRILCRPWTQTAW
T4 sequence (P35462 whole entry): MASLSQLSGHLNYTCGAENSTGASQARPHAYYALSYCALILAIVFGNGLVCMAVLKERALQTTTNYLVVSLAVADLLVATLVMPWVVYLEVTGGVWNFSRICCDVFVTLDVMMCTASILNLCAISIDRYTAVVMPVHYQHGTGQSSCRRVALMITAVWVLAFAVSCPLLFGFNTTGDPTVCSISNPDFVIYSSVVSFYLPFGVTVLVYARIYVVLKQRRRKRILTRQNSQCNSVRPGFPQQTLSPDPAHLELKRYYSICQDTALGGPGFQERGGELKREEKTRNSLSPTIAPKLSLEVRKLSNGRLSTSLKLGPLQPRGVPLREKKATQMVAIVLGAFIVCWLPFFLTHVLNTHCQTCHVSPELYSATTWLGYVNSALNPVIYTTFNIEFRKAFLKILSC
T5 sequence (P21917 whole entry): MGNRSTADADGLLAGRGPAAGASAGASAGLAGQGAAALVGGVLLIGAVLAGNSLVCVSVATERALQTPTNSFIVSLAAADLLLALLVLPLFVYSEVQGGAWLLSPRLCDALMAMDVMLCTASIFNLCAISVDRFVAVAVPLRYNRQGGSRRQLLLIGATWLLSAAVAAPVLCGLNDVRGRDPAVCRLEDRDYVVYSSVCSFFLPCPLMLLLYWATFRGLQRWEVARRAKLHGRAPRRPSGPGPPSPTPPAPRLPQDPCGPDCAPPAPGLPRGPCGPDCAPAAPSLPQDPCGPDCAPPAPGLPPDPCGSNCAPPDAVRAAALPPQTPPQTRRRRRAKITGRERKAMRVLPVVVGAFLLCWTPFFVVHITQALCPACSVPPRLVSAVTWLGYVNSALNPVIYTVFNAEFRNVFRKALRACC
T6 sequence (P35367 whole entry): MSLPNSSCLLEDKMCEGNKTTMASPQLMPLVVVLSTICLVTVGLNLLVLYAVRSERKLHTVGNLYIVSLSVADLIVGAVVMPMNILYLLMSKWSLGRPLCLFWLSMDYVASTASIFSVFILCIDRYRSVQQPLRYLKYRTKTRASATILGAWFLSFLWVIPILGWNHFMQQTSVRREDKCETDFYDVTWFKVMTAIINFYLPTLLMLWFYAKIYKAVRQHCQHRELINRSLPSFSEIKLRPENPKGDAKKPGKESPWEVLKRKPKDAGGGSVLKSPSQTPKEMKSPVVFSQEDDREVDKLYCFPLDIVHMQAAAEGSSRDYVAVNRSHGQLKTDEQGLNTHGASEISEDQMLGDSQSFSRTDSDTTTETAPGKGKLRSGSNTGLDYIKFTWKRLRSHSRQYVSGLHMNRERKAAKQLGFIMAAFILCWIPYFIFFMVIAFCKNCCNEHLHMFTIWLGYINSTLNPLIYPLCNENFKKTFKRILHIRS
T1 sequence (P08913 whole entry): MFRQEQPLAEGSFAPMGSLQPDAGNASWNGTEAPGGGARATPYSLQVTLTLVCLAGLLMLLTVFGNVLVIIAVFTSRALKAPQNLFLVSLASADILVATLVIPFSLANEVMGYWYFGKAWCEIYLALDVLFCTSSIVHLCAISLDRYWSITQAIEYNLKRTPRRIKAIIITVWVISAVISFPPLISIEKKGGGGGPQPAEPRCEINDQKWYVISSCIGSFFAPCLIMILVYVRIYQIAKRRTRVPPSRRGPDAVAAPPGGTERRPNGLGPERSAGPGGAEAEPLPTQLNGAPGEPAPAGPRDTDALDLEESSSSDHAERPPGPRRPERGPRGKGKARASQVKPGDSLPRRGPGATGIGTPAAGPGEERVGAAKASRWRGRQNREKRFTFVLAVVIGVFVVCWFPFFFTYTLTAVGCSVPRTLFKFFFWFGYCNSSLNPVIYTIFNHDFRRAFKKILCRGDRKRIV
T3 sequence (P18825 whole entry): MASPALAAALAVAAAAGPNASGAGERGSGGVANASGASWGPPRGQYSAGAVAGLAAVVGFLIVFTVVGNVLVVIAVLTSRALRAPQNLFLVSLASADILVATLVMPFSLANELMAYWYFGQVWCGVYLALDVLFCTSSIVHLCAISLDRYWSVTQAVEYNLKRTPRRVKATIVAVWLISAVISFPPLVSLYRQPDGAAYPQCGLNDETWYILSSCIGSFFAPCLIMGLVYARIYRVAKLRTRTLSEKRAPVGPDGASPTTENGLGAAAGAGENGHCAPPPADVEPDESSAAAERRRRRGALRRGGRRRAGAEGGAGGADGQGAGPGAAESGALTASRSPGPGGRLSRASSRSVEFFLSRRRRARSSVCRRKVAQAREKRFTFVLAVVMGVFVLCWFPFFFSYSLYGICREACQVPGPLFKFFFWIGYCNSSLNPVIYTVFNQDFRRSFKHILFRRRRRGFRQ

For the compound `CCC1(CC)C[C@@H](CCN2CCN(c3ccc(O)cc3)CC2)OC1=O` [MC-230078], in [1] (setting [5]), the solubility worked out at 200 µM (≈ 69.3 µg/mL).
`CCC1(CC)CC(CCN2CCN(c3ccc(O)cc3)CC2)OC1=O` (stereo not drawn) [MC-170073]: the Ki was above 10 µM in series [2]; 3.48 µM on α2A; 0.493 µM on α2B; 3.6 µM at α2C; 1.23 µM at D3; 0.591 µM at D4. Besides, the Ki at H1 came to 0.915 µM. The solubility in series [1] (setting [5]) amounted to 200 µM (≈ 69.3 µg/mL); in series [1], 168 µM (≈ 58.2 µg/mL). Besides, the half-life in [3] was determined as 17 min. The “colonic IL-1β level” value in series [4] is “lower levels”. In series [4], the “colonic MPO level” value is recorded as “lower levels”. Further, the histological score result in series [4] is “downregulation”. Further, the macroscopic score entry in [4] was “downregulation”.

The solubility is how much of the substance goes into solution per volume. For orientation: Ki means a dissociation constant, usually derived from enzyme kinetics or from competition with a known ligand.

These data come from PMC11550998, “Novel 5-HT7 receptor antagonists modulate intestinal immune responses and reduce severity of colitis” (American Journal of Physiology - Gastrointestinal and Liver …, 2024).
